pIC50: −log10 of the molar value.
Target: T1, Recombinant human CBP containing the bromodomain (CBP-BD (1043-1159)) (Homo sapiens, UniProt Q92793)
T1 construct: Recombinant human CBP bromodomain (CBP-BD (1043-1159)); made in house; host or cells: E. coli BL21-CodonPlus (DE3), modified pET vector
Experiment: CBP Alphascreen binding assay
Conditions: read-out: CREBBP (CBP) IC50
How it was run: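 Buffer: 50 mM HEPES pH 7.5, 50 mM NaCl, 0.01% BSA, 0.01% Triton X-100, 2 mM DTT. The signal was normalised to plate controls and fitted with a four-parameter curve to give IC50.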

T1 sequence (Q92793 1081-1197): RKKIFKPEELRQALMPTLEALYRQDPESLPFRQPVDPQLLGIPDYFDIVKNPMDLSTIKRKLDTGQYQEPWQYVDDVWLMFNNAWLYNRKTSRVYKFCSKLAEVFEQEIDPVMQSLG

| Structure (SMILES) | pIC50 |
| --- | --- |
| Cc1noc(C)c1-c1cnc2c(c1)c(-c1ccc(C(C)(C)C(=O)O)cc1)cn2C(c1ccccn1)C1CCCC1 (stereo not shown) [P-0032, 2-(4-(1-(cyclopentyl(pyridin-2-yl)methyl)-5-(3,5-dimethylisoxazol-4-yl)-1H-pyrrolo[2,3-b]pyridin-3-yl)phenyl)-2-methylpropanoic acid] | 6.00 to 10.00 |
| Cc1noc(C)c1-c1cnc2c(c1)c(-c1c(F)cc(C(=O)O)cc1OCC(F)F)cn2-c1cnc(N2CCC2)nc1 [P-0348, 4-(1-(2-(azetidin-1-yl)pyrimidin-5-yl)-5-(3,5-dimethylisoxazol-4-yl)-1H-pyrrolo[2,3-b]pyridin-3-yl)-3-(2,2-difluoroethoxy)-5-fluorobenzoic acid] | 6.00 to 10.00 |
| Cc1noc(C)c1-c1cnc2c(c1)c(-c1c(Cl)cc(C(=O)O)cc1OC1CCC1)cn2[C@H]1CCOC1 [P-0361, (S)-3-chloro-5-cyclobutoxy-4-(5-(3,5-dimethylisoxazol-4-yl)-1-(tetrahydrofuran-3-yl)-1H-pyrrolo[2,3-b]pyridin-3-yl)benzoic acid] | 6.00 to 10.00 |
| Cc1noc(C)c1-c1cnc2c(c1)c(-c1ccc(C(=O)O)cc1OCC(F)F)cn2[C@H]1CCOC1 [P-0325, (S)-3-(2,2-difluoroethoxy)-4-(5-(3,5-dimethylisoxazol-4-yl)-1-(tetrahydrofuran-3-yl)-1H-pyrrolo[2,3-b]pyridin-3-yl)benzoic acid] | 6.00 to 10.00 |
| Cc1noc(C)c1-c1cnc2c(c1)c(-c1c(Cl)cc(C(=O)O)cc1OCC(F)F)cn2-c1ccccc1 [P-0332, 3-chloro-5-(2,2-difluoroethoxy)-4-(5-(3,5-dimethylisoxazol-4-yl)-1-phenyl-1H-pyrrolo[2,3-b]pyridin-3-yl)benzoic acid] | 6.00 to 10.00 |
| Cc1noc(C)c1-c1cnc2c(c1)c(-c1ccc(C(=O)O)cc1OC1CCC1)cn2-c1cnc(N2CCC2)nc1 [P-0347, 4-(1-(2-(azetidin-1-yl)pyrimidin-5-yl)-5-(3,5-dimethylisoxazol-4-yl)-1H-pyrrolo[2,3-b]pyridin-3-yl)-3-cyclobutoxybenzoic acid] | 6.00 to 10.00 |
| Cc1nn(C(F)F)cc1-n1cc(-c2ccc(C(=O)O)cc2OCC(F)F)c2cc(-c3c(C)noc3C)cnc21 [P-0349, 3-(2,2-difluoroethoxy)-4-(1-(1-(difluoromethyl)-3-methyl-1H-pyrazol-4-yl)-5-(3,5-dimethylisoxazol-4-yl)-1H-pyrrolo[2,3-b]pyridin-3-yl)benzoic acid] | 6.00 to 10.00 |
| Cc1noc(C)c1-c1cnc2c(c1)c(-c1ccc(C(=O)O)cc1OC(F)(F)F)cn2C1(C)CCOC1 (stereo not shown) [P-0383, 4-(5-(3,5-dimethylisoxazol-4-yl)-1-(3-methyltetrahydrofuran-3-yl)-1H-pyrrolo[2,3-b]pyridin-3-yl)-3-(trifluoromethoxy)benzoic acid] | 6.00 to 10.00 |
| Cc1noc(C)c1-c1cnc2c(c1)c(-c1ccc(C(=O)O)cc1OC1CC1)cn2C1CCOCC1 [P-0379, 3-cyclopropoxy-4-(5-(3,5-dimethylisoxazol-4-yl)-1-(tetrahydro-2H-pyran-4-yl)-1H-pyrrolo[2,3-b]pyridin-3-yl)benzoic acid] | 6.00 to 10.00 |
| CCOc1cc(C(=O)O)c(F)cc1-c1cn(-c2ccc(F)cc2F)c2ncc(-c3c(C)noc3C)cc12 [P-0330, 4-(1-(2,4-difluorophenyl)-5-(3,5-dimethylisoxazol-4-yl)-1H-pyrrolo[2,3-b]pyridin-3-yl)-5-ethoxy-2-fluorobenzoic acid] | 6.00 to 10.00 |
| CCn1cc(-n2cc(-c3ccc(C(=O)O)cc3OCC(F)F)c3cc(-c4c(C)noc4C)cnc32)c(C)n1 [P-0326, 3-(2,2-difluoroethoxy)-4-(5-(3,5-dimethylisoxazol-4-yl)-1-(1-ethyl-3-methyl-1H-pyrazol-4-yl)-1H-pyrrolo[2,3-b]pyridin-3-yl)benzoic acid] | 6.00 to 10.00 |
| Cc1noc(C)c1-c1cnc2c(c1)c(-c1c(Cl)cc(C(=O)O)cc1OC1CCC1)cn2C1CCOCC1 [P-0358, 3-chloro-5-cyclobutoxy-4-(5-(3,5-dimethylisoxazol-4-yl)-1-(tetrahydro-2H-pyran-4-yl)-1H-pyrrolo[2,3-b]pyridin-3-yl)benzoic acid] | 6.00 to 10.00 |
| Cc1noc(C)c1-c1cnc2c(c1)c(-c1ccc(C(=O)O)cc1OC(F)(F)F)cn2-c1ccc(C(=O)O)cc1 [P-0322, 4-(1-(4-carboxyphenyl)-5-(3,5-dimethylisoxazol-4-yl)-1H-pyrrolo[2,3-b]pyridin-3-yl)-3-(trifluoromethoxy)benzoic acid] | 6.00 to 10.00 |
| Cc1noc(C)c1-c1cnc2c(c1)c(-c1ccc(C3(C(=O)O)CC3)cc1)cn2C(c1ccccn1)C1CCCC1 (stereo not shown) [P-0033, 1-(4-(1-(cyclopentyl(pyridin-2-yl)methyl)-5-(3,5-dimethylisoxazol-4-yl)-1H-pyrrolo[2,3-b]pyridin-3-yl)phenyl)cyclopropane-1-carboxylic acid] | 6.00 to 10.00 |
| CCOc1cc(C(=O)O)nc(OCC)c1-c1cn(C2CCOCC2)c2ncc(-c3c(C)noc3C)cc12 [P-0373, 5-(5-(3,5-dimethylisoxazol-4-yl)-1-(tetrahydro-2H-pyran-4-yl)-1H-pyrrolo[2,3-b]pyridin-3-yl)-4,6-diethoxypicolinic acid] | 6.00 to 10.00 |
| Cc1noc(C)c1-c1cnc2c(c1)c(-c1c(Cl)cc(C(=O)O)cc1OC(F)(F)F)cn2C1CCOCC1 [P-0355, 3-chloro-4-(5-(3,5-dimethylisoxazol-4-yl)-1-(tetrahydro-2H-pyran-4-yl)-1H-pyrrolo[2,3-b]pyridin-3-yl)-5-(trifluoromethoxy)benzoic acid] | 6.00 to 10.00 |
| Cc1noc(C)c1-c1cnc2c(c1)c(-c1ccc(C(=O)O)cc1OC(F)(F)F)c(C)n2-c1ncccc1C#N [P-0345, 4-(1-(3-cyanopyridin-2-yl)-5-(3,5-dimethylisoxazol-4-yl)-2-methyl-1H-pyrrolo[2,3-b]pyridin-3-yl)-3-(trifluoromethoxy)benzoic acid] | 6.00 to 10.00 |
| Cc1noc(C)c1-c1cnc2c(c1)c(-c1ccc(C(=O)O)cc1OC(F)(F)F)cn2C1CCC1 [P-0378, 4-(1-cyclobutyl-5-(3,5-dimethylisoxazol-4-yl)-1H-pyrrolo[2,3-b]pyridin-3-yl)-3-(trifluoromethoxy)benzoic acid] | 6.00 to 10.00 |
| CCOc1cc(C(=O)O)c(F)cc1-c1cn([C@H]2CCOC2)c2ncc(-c3c(C)noc3C)cc12 [P-0360, (S)-4-(5-(3,5-dimethylisoxazol-4-yl)-1-(tetrahydrofuran-3-yl)-1H-pyrrolo[2,3-b]pyridin-3-yl)-5-ethoxy-2-fluorobenzoic acid] | 6.00 to 10.00 |
| Cc1noc(C)c1-c1cnc2c(c1)c(-c1ccc(C(=O)O)cc1OC(F)(F)F)cn2C1(CC#N)CCC1 [P-0335, 4-(1-(1-(cyanomethyl)cyclobutyl)-5-(3,5-dimethylisoxazol-4-yl)-1H-pyrrolo[2,3-b]pyridin-3-yl)-3-(trifluoromethoxy)benzoic acid] | 6.00 to 10.00 |
| CCOc1nc(C(=O)O)ccc1-c1cn(C2CCOCC2)c2ncc(-c3c(C)noc3C)cc12 [P-0376, 5-(5-(3,5-dimethylisoxazol-4-yl)-1-(tetrahydro-2H-pyran-4-yl)-1H-pyrrolo[2,3-b]pyridin-3-yl)-6-ethoxypicolinic acid] | 6.00 to 10.00 |
| Cc1noc(C)c1-c1cnc2c(c1)c(-c1c(F)cc(C(=O)O)cc1OC(C)C)cn2C(C1CC1)C1CC1 [P-0369, 4-(1-(dicyclopropylmethyl)-5-(3,5-dimethylisoxazol-4-yl)-1H-pyrrolo[2,3-b]pyridin-3-yl)-3-fluoro-5-isopropoxybenzoic acid] | 6.00 to 10.00 |

Source: US11446287B2, “Compounds and methods for EP300 or CBP modulation and indications therefor” (Opna Immuno-Oncology SA, priority 2019, dated 2022)
